The values that follow come from patent publication US12392768B2, “Methods for determining blood gas or metabolic parameters” (RADIOMETER MEDICAL APS, priority 2019, dated 2025).

Assay [1] relates to platelets. The assay can be described thus: Manual count of single platelets and platelet aggregates in heparinized blood with anti-platelet drug candidates (Example 1). The following applies: heparinized venous blood; for platelet count compared to LiHep and PicoSAM controls: L-Arginine 600 μM and 6 mM, dipyridamole 10 and 100 μM; for count of single platelets compared to EDTA reference / number of platelet aggregates compared to EDTA control: two concentration levels per drug.
Method: Each experiment was conducted on a separate day with blood from one voluntary donor testing one anti-platelet drug candidate. For each experiment PICO70 syringe samplers (Radiometer Medical ApS) were prepared just before sample drawing. For “LiHep” (Liquid Heparin) conditions, PICO70 samplers were emptied of the gold ball and heparin brick and 15 μl of aqueous liquid balanced heparin comprising heparin lithium (Celsus Laboratories) and heparin sodium (Celsus Laboratories) (final heparin conc. 60 IU/mL blood) and 15 μl of the solvent of the tested drug were added. For “PicoSAM” conditions, unmodified PICO70 samplers (with gold ball and heparin brick) were used and 15 μl of the solvent of the respective tested drug was added. For “LiHep xxx drug” conditions, PICO70 samplers were emptied as described for LiHep and 15 μl of liquid balanced heparin (final heparin conc. 60 IU/mL blood) and 15 μl of the dissolved tested drug were added. For “PicoSAM xxx drug” conditions, unmodified PICO70 samplers (with gold ball and heparin brick) were used and 15 μl of the dissolved tested drug was added. […] 600 μM and 6 mM) and dipyridamole (Sigma, D9766; dissolved in 1:10 or 1:100 DMSO in saline, final conc. 10 and 100 μM). An EDTA tube (BD Vacutainer with spray-coated K2EDTA, 10 ml) and duplicate samples of all conditions of PICO70 syringe samplers were filled by drawing venous blood via a butterfly needle using a sealed VTC (vented tip cap) to fill the otherwise self-aspirating PICO70 samplers with 1.5 mL venous whole blood. Samplers were inverted 8 times immediately after drawing to insure proper anti-coagulation of the samples. The blood samples were mixed gently by hand (samplers without gold ball) or on a SAM mixer (Radiometer Medical ApS) for 15 minutes after drawing the sample. Mixed samples were fixed immediately with 10% formalin solution (1:1 dilution of blood in formalin) for at least 10 minutes and further diluted 1:10 in platelet dilution solution to hemolyze red blood cells (RBCs) to assessed manual platelet count using a hemocytometer. […] Single platelet counts were adjusted for dilution with liquid heparin and or dissolved drug solution to calculate single platelet concentrations.

In assay [2] the test system is platelets. The assay can be described thus: Microscopic wet mount images of fixed blood samples, platelet aggregation (Example 2). Type of assay: cell-based. Conditions: 40x phase contrast, eptifibatide 20 μM added to heparin. The text has this:
Venous blood samples drawn, mixed and fixed with 10% formalin solution, as described before in Example 1 were used to prepare wet mounts on a glass slide and covered with a glass coverslip. Wet mount samples of fixed blood cells were then imaged with a Leica 750 microscope using a 40× phase-contrast air objective.

Assay [3] deals with platelets and WBCs. Briefly: Wet mount images of stained and hemolyzed blood samples (Example 3). In kind it is cell-based. Conditions: for WBC aggregates / platelet satellinism (platelets binding to WBCs) / platelets (single or aggregated) in stained wet mounts: PicoSAM samples, tirofiban 1 μM, eptifibatide 20 μM, iloprost 100 nM, EDTA anti-coagulated blood. On the procedure: Venous blood samples were drawn and mixed as described before in Example 1 and used to prepare stained wet mounts images. Blood samples were mixed with a staining and hemolyzing agent (methylene blue and deoxycholic acid, respectively) and incubated at 47° C. in a water bath for 30 seconds. Stained and hemolyzed blood samples were then prepared in wet mount samples on a glass slide and covered with a glass coverslip. Images of stained samples were then acquired with a Leica 750 microscope using a 40× air objective in bright field mode. An image processing software (FIJI, ImageJ) was used to select regions of interest (ROIs) of representative stained WBCs from the images.

For assay [4], the system named is platelets. Briefly: Manual platelet count versus EDTA reference (Example 4). The following applies: for Mean Manual PLT count: Iloprost 1 μM in PicoSAM, EDTA reference. Type of assay: cell-based.
Method: For each experiment PICO70 syringe samplers (Radiometer Medical ApS) were prepared just before sample drawing. For “LiHep” (Liquid Heparin) conditions, PICO70 samplers were emptied of the gold ball and heparin brick and 15 μl of aqueous liquid balanced heparin comprising heparin lithium (Celsus Laboratories) and heparin sodium (Celsus Laboratories) (final heparin conc. 60 IU/mL blood) and 15 μl of the solvent of the tested drug were added. For “PicoSAM” conditions, unmodified PICO70 samplers (with gold ball and heparin brick) were used and 15 μl of the solvent of the respective tested drug was added. For “LiHep xxx drug” conditions, PICO70 samplers were emptied as described for LiHep and 15 μl of liquid balanced heparin (final heparin conc. 60 IU/mL blood) and 15 μl of the dissolved tested drug were added. For “PicoSAM xxx drug” conditions, unmodified PICO70 samplers (with gold ball and heparin brick) were used and 15 μl of the dissolved tested drug was added. […] An EDTA tube (BD Vacutainer with spray-coated K2EDTA, 10 ml) and duplicate samples of all conditions of PICO70 syringe samplers were filled by drawing venous blood via a butterfly needle using a sealed VTC (vented tip cap) to fill the otherwise self-aspirating PICO70 samplers with 1.5 mL venous whole blood. Samplers were inverted 8 times immediately after drawing to insure proper anti-coagulation of the samples. The blood samples were mixed gently by hand (samplers without gold ball) or on a SAM mixer (Radiometer Medical ApS) for 15 minutes after drawing the sample. Mixed samples were fixed immediately with 10% formalin solution (1:1 dilution of blood in formalin) for at least 10 minutes and further diluted 1:10 in platelet dilution solution to hemolyze red blood cells (RBCs) to assessed manual platelet count using a hemocytometer. […] Single platelet counts were adjusted for dilution with liquid heparin and or dissolved drug solution to calculate single platelet concentrations.
For assay [5], the system named is platelets. Briefly: ABX platelet count, automated hematology analyzer (Example 4). In kind it is cell-based. Conditions: for Mean ABX PLT count: Iloprost 1 μM in PicoSAM, EDTA reference. The procedure: Blood samples drawn and mixed after 15 minutes as described above were assessed with an automated hematology analyzer (Horiba, ABX Pentra 60C+) (ABX) for complete blood count (CBC) with 5-diff including WBC concentration, platelet concentration, mean platelet volume (MPV), concentrations and fractions of neutrophils, lymphocytes, monocytes, eosinophils and basophils, RBC concentration, hematocrit, hemoglobin concentration, RBC descriptive parameters (MCV, MCH, MCHC, RDW). Samples were prepared from several donors. Measured platelet concentration was used to compare to manually assessed platelet concentrations of iloprost heparin samples (in PICO70 samplers) and EDTA anti-coagulated samples. For control, EDTA samples with no platelet aggregates are used as reference measurement for the measured automated ABX platelet concentration.

Entries after “also recorded” stand apart in the source; their conditions may differ. Where a name gives a salt, the structure may show the parent alone.

On to `OCCN(CCO)c1nc(N2CCCCC2)c2nc(N(CCO)CCO)nc(N3CCCCC3)c2n1` [Dipyridamole, dipyridamole], for which the “platelet count compared to LiHep and PicoSAM controls” value in assay [1] is recorded as “slightly higher”.
As for `O=C(O)CN(CCN(CC(=O)O)CC(=O)O)CC(=O)O` [EDTA, Ethylenediaminetetraacetic acid], the “platelet aggregates in microscopic images of blood samples” value (from here on “platelet aggregates … of blood samples”) in assay [2] was “prevents platelet activation and maintains single platelets; also recorded: cannot be seen”. Further, the WBC aggregates entry in assay [3] is “same results”. Further, the “platelet satellinism (platelets binding to WBCs)” value in assay [3] is “same results”. Further, the “platelets (single or aggregated) in stained wet mounts” value (shortened to “platelets (single or aggregated)”) in assay [3] is “same results”. The “Mean Manual PLT count” value stood at 200 PLT/nl in assay [4] (Donor ID 4); 242 PLT/nl in assay [4] (Donor ID 5); 189 PLT/nl in assay [4] (Donor ID 6); 249 PLT/nl in assay [4] (Donor ID 7); 207 PLT/nl in assay [4] (Donor ID 8); 255 PLT/nl in assay [4] (Donor ID 9). Moreover, the “Mean ABX PLT count” value was 200 PLT/nl in assay [5] (Donor ID 4); 259 PLT/nl in assay [5] (Donor ID 5); 185 PLT/nl in assay [5] (Donor ID 6); 240 PLT/nl in assay [5] (Donor ID 7); 202 PLT/nl in assay [5] (Donor ID 8); 236 PLT/nl in assay [5] (Donor ID 9).
Consider `CC#CCC(C)[C@H](O)/C=C/[C@@H]1[C@H]2C/C(=C/CCCC(=O)O)C[C@H]2C[C@H]1O` (stereo partly drawn) [Iloprost, iloprost], for which the “WBC aggregation in the blood sample” value in assay [3] is listed as “very low WBC aggregation”. Further, the WBC aggregates entry in assay [3] is listed as “not platelet satellinism or WBC aggregates”. The “platelet satellinism (platelets binding to WBCs)” value in assay [3] is recorded as “not platelet satellinism”. Moreover, the “platelets (single or aggregated)” value in assay [3] is “single platelets”. Also, the “Mean Manual PLT count” value is 198 PLT/nl in assay [4] (Donor ID 4); 242 PLT/nl in assay [4] (Donor ID 5); 154 PLT/nl in assay [4] (Donor ID 6); 247 PLT/nl in assay [4] (Donor ID 7); 203 PLT/nl in assay [4] (Donor ID 8); 202 PLT/nl in assay [4] (Donor ID 9). For the same compound, the “average performance of platelet count compared to EDTA samples as reference, manual count” value amounted to 97% in assay [4] (PicoSAM 100 nM iloprost, one donor) and 93% in assay [4] (PicoSAM 1 μM iloprost, eight donors). The “Mean ABX PLT count” value was found to be 204 PLT/nl in assay [5] (Donor ID 4); 253 PLT/nl in assay [5] (Donor ID 5); 173 PLT/nl in assay [5] (Donor ID 6); 233 PLT/nl in assay [5] (Donor ID 7); 191 PLT/nl in assay [5] (Donor ID 8); 216 PLT/nl in assay [5] (Donor ID 9). Also, the “average performance of platelet count compared to EDTA samples as reference, ABX platelet count” value in assay [5] (PicoSAM 1 μM iloprost, seven donors) stood at 97%. For the same compound, in assay [1], the “count of single platelets compared to EDTA reference” value (shortened to “count … compared to EDTA reference”) is reported as “comparable”. In assay [1], the “number of platelet aggregates compared to EDTA control” value (from here on “number … compared to EDTA control”) is “no or few”.
As for `N=C(N)NCCC[C@H](N)C(=O)O` [L-Arginine], in assay [1], the “count … compared to EDTA reference” value is listed as “decreased”; the “number … compared to EDTA control” value was “higher”; the “platelet count compared to LiHep and PicoSAM controls” value is listed as “slightly higher”.
In the case of `Clc1ccccc1CN1CCc2sccc2C1` [Ticlopidine, ticlopidine hydrochloride], the “count … compared to EDTA reference” value in assay [1] was “similar”.
Consider `CCCCS(=O)(=O)N[C@@H](Cc1ccc(OCCCCC2CCNCC2)cc1)C(=O)O` [Tirofiban, tirofiban hydrochloride monohydrate], for which, in assay [3], the WBC aggregates result is “WBC aggregates were also observed”, the “platelet satellinism (platelets binding to WBCs)” value is listed as “platelet satellinism” and the “platelets (single or aggregated)” value is given as “single platelets”. In assay [1], the “count … compared to EDTA reference” value is given as “comparable” and the “number … compared to EDTA control” value is listed as “no or few”.
For the compound Heparin, the “platelet aggregates … of blood samples” value in assay [2] was “allows or even potentiates platelet aggregation; also recorded: showed platelet aggregates”.
eptifibatide acetate: the “platelet aggregates … of blood samples” value in assay [2] is recorded as “cannot be observed; also recorded: cannot be seen”. Moreover, in assay [3], the WBC aggregates result was “WBC aggregates were also observed”, the “platelet satellinism (platelets binding to WBCs)” value was “platelet satellinism” and the “platelets (single or aggregated)” value was “single platelets”. For the same compound, in assay [1], the “count … compared to EDTA reference” value was “comparable” and the “number … compared to EDTA control” value is recorded as “no or few”.
